Laboratory results from US6339042B1, “Herbicidal N-cyclohexadienyl heteroaryloxyacetamides” (American Cyanamid Co., priority 1999, dated 2002).

Columns and labels:
Details in all cases: three weeks after treatment
[1] = system: Amaranthus tuberculatus; test: Pre-emergence herbicidal evaluation, AMATA; type: in vivo
Excerpt: (§1) The treated pots are then placed on greenhouse benches, watered and cared for in accordance with conventional greenhouse procedures.

[2] = system: Galium aparine; test: Pre-emergence herbicidal evaluation, GALAP; type: in vivo
Excerpt: as §1

[3] = system: Alopecurus myosuroides; test: Pre-emergence herbicidal evaluation, ALOMY; type: in vivo
Excerpt: as §1

[4] = system: Apera spica venti; test: Pre-emergence herbicidal evaluation, APESV; type: in vivo
Excerpt: as §1

[5] = system: Echinochloa crus-galli; test: Pre-emergence herbicidal evaluation, ECHCG; type: in vivo
Excerpt: as §1

[6] = system: Setaria viridis; test: Pre-emergence herbicidal evaluation, SETVI; type: in vivo
Excerpt: as §1

[7] = system: Lolium perenne; test: Pre-emergence herbicidal evaluation, LOLPE; type: in vivo
Excerpt: as §1

[8] = system: Triticum aestivum; test: Pre-emergence herbicidal evaluation, TRZAW; type: in vivo
Excerpt: as §1

[9] = system: Hordeum vulgare; test: Pre-emergence herbicidal evaluation, HORVW; type: in vivo
Excerpt: as §1

[10] = system: Zea mays; test: Pre-emergence herbicidal evaluation, ZEAMX; type: in vivo
Excerpt: as §1

[11] = system: Glycine max; test: Pre-emergence herbicidal evaluation, GLXMA; type: in vivo
Excerpt: as §1

[12] = system: Oryza sativum; test: Pre-emergence herbicidal evaluation, ORYSA; type: in vivo
Excerpt: as §1

[13] = system: Amaranthus tuberculatus; test: Post-emergence herbicidal evaluation, AMATA; type: in vivo
[14] = system: Galium aparine; test: Post-emergence herbicidal evaluation, GALAP
[15] = system: Alopecurus myosuroides; test: Post-emergence herbicidal evaluation, ALOMY
Method: The compounds of the invention are tested for pre- and post-emergence herbicidal activity.
(§2) Each pot is examined three weeks after treatment and phytotoxicity is assessed according to the rating system set forth below.
(§3) These acetone solutions are diluted with water and the resulting formulations applied at dosage levels equivalent of about 0.4 to 0.1 kg per hectare of test compound per pot. After spraying the plants are placed on greenhouse benches and are cared for in the usual manner, commensurate with conventional greenhouse practices.

[16] = system: Apera spica venti; test: Post-emergence herbicidal evaluation, APESV
[17] = system: Echinochloa crus-galli; test: Post-emergence herbicidal evaluation, ECHCG
[18] = system: Setaria viridis; test: Post-emergence herbicidal evaluation, SETVI
[19] = system: Lolium perenne; test: Post-emergence herbicidal evaluation, LOLPE
[20] = system: Triticum aestivum; test: Post-emergence herbicidal evaluation, TRZAW
[21] = system: Hordeum vulgare; test: Post-emergence herbicidal evaluation, HORVW
[22] = system: Zea mays; test: Post-emergence herbicidal evaluation, ZEAMX
Method: as §2, §3

[23] = system: Glycine max; test: Post-emergence herbicidal evaluation, GLXMA
Method: as §2, §3

[24] = system: Oryza sativum; test: Post-emergence herbicidal evaluation, ORYSA

## CCN(C(=O)COc1nc2ccccc2o1)C1=CC(C)(C)CC(C)=C1 [Example 2]
[1]; 0.100 kg/ha
  phytotoxicity rating AMATA: 2 (2 - Slight effect)
[1]; 0.200 kg/ha
  phytotoxicity rating AMATA: 6 (6 - Herbicidal effect)
[1]; 0.400 kg/ha
  phytotoxicity rating AMATA: 8 (8 - Approaching complete kill)
[1]; 0.800 kg/ha
  phytotoxicity rating AMATA: 8 (8 - Approaching complete kill)
[2]; 0.100 kg/ha
  phytotoxicity rating GALAP: 0 (0 - No effect)
[2]; 0.200 kg/ha
  phytotoxicity rating GALAP: 0 (0 - No effect)
[2]; 0.400 kg/ha
  phytotoxicity rating GALAP: 0 (0 - No effect)
[2]; 0.800 kg/ha
  phytotoxicity rating GALAP: 0 (0 - No effect)
[3]; 0.100 kg/ha
  phytotoxicity rating ALOMY: 1 (1 - Trace effect)
[3]; 0.200 kg/ha
  phytotoxicity rating ALOMY: 5 (5 - Definite injury)
[3]; 0.400 kg/ha
  phytotoxicity rating ALOMY: 6 (6 - Herbicidal effect)
[3]; 0.800 kg/ha
  phytotoxicity rating ALOMY: 6 (6 - Herbicidal effect)
[4]; 0.100 kg/ha
  phytotoxicity rating APESV: 1 (1 - Trace effect)
[4]; 0.200 kg/ha
  phytotoxicity rating APESV: 6 (6 - Herbicidal effect)
[4]; 0.400 kg/ha
  phytotoxicity rating APESV: 9 (9 - Complete kill)
[4]; 0.800 kg/ha
  phytotoxicity rating APESV: 9 (9 - Complete kill)
[5]; 0.100 kg/ha
  phytotoxicity rating ECHCG: 3 (3 - Moderate effect)
[5]; 0.200 kg/ha
  phytotoxicity rating ECHCG: 5 (5 - Definite injury)
[5]; 0.400 kg/ha
  phytotoxicity rating ECHCG: 8 (8 - Approaching complete kill)
[5]; 0.800 kg/ha
  phytotoxicity rating ECHCG: 9 (9 - Complete kill)
[6]; 0.100 kg/ha
  phytotoxicity rating SETVI: 1 (1 - Trace effect)
[6]; 0.200 kg/ha
  phytotoxicity rating SETVI: 4 (4 - Injury)
[6]; 0.400 kg/ha
  phytotoxicity rating SETVI: 7 (7 - Good herbicidal effect)
[6]; 0.800 kg/ha
  phytotoxicity rating SETVI: 8 (8 - Approaching complete kill)
[7]; 0.100 kg/ha
  phytotoxicity rating LOLPE: 0 (0 - No effect)
[7]; 0.200 kg/ha
  phytotoxicity rating LOLPE: 2 (2 - Slight effect)
[7]; 0.400 kg/ha
  phytotoxicity rating LOLPE: 8 (8 - Approaching complete kill)
[7]; 0.800 kg/ha
  phytotoxicity rating LOLPE: 9 (9 - Complete kill)
[8]; 0.100 kg/ha
  phytotoxicity rating TRZAW: 0 (0 - No effect)
[8]; 0.200 kg/ha
  phytotoxicity rating TRZAW: 0 (0 - No effect)
[8]; 0.400 kg/ha
  phytotoxicity rating TRZAW: 2 (2 - Slight effect)
[8]; 0.800 kg/ha
  phytotoxicity rating TRZAW: 2 (2 - Slight effect)
[9]; 0.100 kg/ha
  phytotoxicity rating HORVW: 0 (0 - No effect)
[9]; 0.200 kg/ha
  phytotoxicity rating HORVW: 2 (2 - Slight effect)
[9]; 0.400 kg/ha
  phytotoxicity rating HORVW: 2 (2 - Slight effect)
[9]; 0.800 kg/ha
  phytotoxicity rating HORVW: 3 (3 - Moderate effect)
[10]; 0.100 kg/ha
  phytotoxicity rating ZEAMX: 0 (0 - No effect)
[10]; 0.200 kg/ha
  phytotoxicity rating ZEAMX: 0 (0 - No effect)
[10]; 0.400 kg/ha
  phytotoxicity rating ZEAMX: 0 (0 - No effect)
[10]; 0.800 kg/ha
  phytotoxicity rating ZEAMX: 1 (1 - Trace effect)
[11]; 0.100 kg/ha
  phytotoxicity rating GLXMA: 0 (0 - No effect)
[11]; 0.200 kg/ha
  phytotoxicity rating GLXMA: 0 (0 - No effect)
[11]; 0.400 kg/ha
  phytotoxicity rating GLXMA: 0 (0 - No effect)
[11]; 0.800 kg/ha
  phytotoxicity rating GLXMA: 0 (0 - No effect)
[12]; 0.100 kg/ha
  phytotoxicity rating ORYSA: 0 (0 - No effect)
[12]; 0.200 kg/ha
  phytotoxicity rating ORYSA: 0 (0 - No effect)
[12]; 0.400 kg/ha
  phytotoxicity rating ORYSA: 0 (0 - No effect)
[12]; 0.800 kg/ha
  phytotoxicity rating ORYSA: 2 (2 - Slight effect)
[13]; 0.100 kg/ha
  phytotoxicity rating AMATA: 5 (5 - Definite injury)
[13]; 0.200 kg/ha
  phytotoxicity rating AMATA: 6 (6 - Herbicidal effect)
[13]; 0.400 kg/ha
  phytotoxicity rating AMATA: 6 (6 - Herbicidal effect)
[14]; 0.100 kg/ha
  phytotoxicity rating GALAP: 0 (0 - No effect)
[14]; 0.200 kg/ha
  phytotoxicity rating GALAP: 2 (2 - Slight effect)
[14]; 0.400 kg/ha
  phytotoxicity rating GALAP: 3 (3 - Moderate effect)
[15]; 0.100 kg/ha
  phytotoxicity rating ALOMY: 0 (0 - No effect)
[15]; 0.200 kg/ha
  phytotoxicity rating ALOMY: 4 (4 - Injury)
[15]; 0.400 kg/ha
  phytotoxicity rating ALOMY: 7 (7 - Good herbicidal effect)
[16]; 0.100 kg/ha
  phytotoxicity rating APESV: 6 (6 - Herbicidal effect)
[16]; 0.200 kg/ha
  phytotoxicity rating APESV: 7 (7 - Good herbicidal effect)
[16]; 0.400 kg/ha
  phytotoxicity rating APESV: 7 (7 - Good herbicidal effect)
[17]; 0.100 kg/ha
  phytotoxicity rating ECHCG: 1 (1 - Trace effect)
[17]; 0.200 kg/ha
  phytotoxicity rating ECHCG: 2 (2 - Slight effect)
[17]; 0.400 kg/ha
  phytotoxicity rating ECHCG: 8 (8 - Approaching complete kill)
[18]; 0.100 kg/ha
  phytotoxicity rating SETVI: 0 (0 - No effect)
[18]; 0.200 kg/ha
  phytotoxicity rating SETVI: 2 (2 - Slight effect)
[18]; 0.400 kg/ha
  phytotoxicity rating SETVI: 6 (6 - Herbicidal effect)
[19]; 0.100 kg/ha
  phytotoxicity rating LOLPE: 5 (5 - Definite injury)
[19]; 0.200 kg/ha
  phytotoxicity rating LOLPE: 7 (7 - Good herbicidal effect)
[19]; 0.400 kg/ha
  phytotoxicity rating LOLPE: 8 (8 - Approaching complete kill)
[20]; 0.100 kg/ha
  phytotoxicity rating TRZAW: 0 (0 - No effect)
[20]; 0.200 kg/ha
  phytotoxicity rating TRZAW: 0 (0 - No effect)
[20]; 0.400 kg/ha
  phytotoxicity rating TRZAW: 1 (1 - Trace effect)
[21]; 0.100 kg/ha
  phytotoxicity rating HORVW: 1 (1 - Trace effect)
[21]; 0.200 kg/ha
  phytotoxicity rating HORVW: 2 (2 - Slight effect)
[21]; 0.400 kg/ha
  phytotoxicity rating HORVW: 2 (2 - Slight effect)
[22]; 0.100 kg/ha
  phytotoxicity rating ZEAMX: 0 (0 - No effect)
[22]; 0.200 kg/ha
  phytotoxicity rating ZEAMX: 0 (0 - No effect)
[22]; 0.400 kg/ha
  phytotoxicity rating ZEAMX: 0 (0 - No effect)
[23]; 0.100 kg/ha
  phytotoxicity rating GLXMA: 5 (5 - Definite injury)
[23]; 0.200 kg/ha
  phytotoxicity rating GLXMA: 7 (7 - Good herbicidal effect)
[23]; 0.400 kg/ha
  phytotoxicity rating GLXMA: 7 (7 - Good herbicidal effect)
[24]; 0.100 kg/ha
  phytotoxicity rating ORYSA: 0 (0 - No effect)
[24]; 0.200 kg/ha
  phytotoxicity rating ORYSA: 0 (0 - No effect)
[24]; 0.400 kg/ha
  phytotoxicity rating ORYSA: 1 (1 - Trace effect)
